Measurements as given in patent US9302991B2, “Arylamide derivatives as TTX-S blockers” (RaQualia Pharma Inc., priority 2010, dated 2016).

target: T1, human Nav1.7 channels (Homo sapiens, UniProt Q15858); assay: FRET assay, human Nav1.7 (EFS on FDSS); format: cell-based; conditions: CHO cells expressing human Nav1.7, read-out: IC50 against Nav1.7
T1 construct: expressed in transfected cells; host or cells: CHO
Method in brief: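 CHO cells stably expressing the channel, loaded with CC2-DMPE (10 µM) then DiSBAC2(3) (15 µM) plus VABSC-1, in HEPES-buffered saline pH 7.4 at room temperature. Electrical field stimulation on FDSS; FRET ratio at 440 nm fitted for IC50.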

T1 sequence (Q15858 whole entry): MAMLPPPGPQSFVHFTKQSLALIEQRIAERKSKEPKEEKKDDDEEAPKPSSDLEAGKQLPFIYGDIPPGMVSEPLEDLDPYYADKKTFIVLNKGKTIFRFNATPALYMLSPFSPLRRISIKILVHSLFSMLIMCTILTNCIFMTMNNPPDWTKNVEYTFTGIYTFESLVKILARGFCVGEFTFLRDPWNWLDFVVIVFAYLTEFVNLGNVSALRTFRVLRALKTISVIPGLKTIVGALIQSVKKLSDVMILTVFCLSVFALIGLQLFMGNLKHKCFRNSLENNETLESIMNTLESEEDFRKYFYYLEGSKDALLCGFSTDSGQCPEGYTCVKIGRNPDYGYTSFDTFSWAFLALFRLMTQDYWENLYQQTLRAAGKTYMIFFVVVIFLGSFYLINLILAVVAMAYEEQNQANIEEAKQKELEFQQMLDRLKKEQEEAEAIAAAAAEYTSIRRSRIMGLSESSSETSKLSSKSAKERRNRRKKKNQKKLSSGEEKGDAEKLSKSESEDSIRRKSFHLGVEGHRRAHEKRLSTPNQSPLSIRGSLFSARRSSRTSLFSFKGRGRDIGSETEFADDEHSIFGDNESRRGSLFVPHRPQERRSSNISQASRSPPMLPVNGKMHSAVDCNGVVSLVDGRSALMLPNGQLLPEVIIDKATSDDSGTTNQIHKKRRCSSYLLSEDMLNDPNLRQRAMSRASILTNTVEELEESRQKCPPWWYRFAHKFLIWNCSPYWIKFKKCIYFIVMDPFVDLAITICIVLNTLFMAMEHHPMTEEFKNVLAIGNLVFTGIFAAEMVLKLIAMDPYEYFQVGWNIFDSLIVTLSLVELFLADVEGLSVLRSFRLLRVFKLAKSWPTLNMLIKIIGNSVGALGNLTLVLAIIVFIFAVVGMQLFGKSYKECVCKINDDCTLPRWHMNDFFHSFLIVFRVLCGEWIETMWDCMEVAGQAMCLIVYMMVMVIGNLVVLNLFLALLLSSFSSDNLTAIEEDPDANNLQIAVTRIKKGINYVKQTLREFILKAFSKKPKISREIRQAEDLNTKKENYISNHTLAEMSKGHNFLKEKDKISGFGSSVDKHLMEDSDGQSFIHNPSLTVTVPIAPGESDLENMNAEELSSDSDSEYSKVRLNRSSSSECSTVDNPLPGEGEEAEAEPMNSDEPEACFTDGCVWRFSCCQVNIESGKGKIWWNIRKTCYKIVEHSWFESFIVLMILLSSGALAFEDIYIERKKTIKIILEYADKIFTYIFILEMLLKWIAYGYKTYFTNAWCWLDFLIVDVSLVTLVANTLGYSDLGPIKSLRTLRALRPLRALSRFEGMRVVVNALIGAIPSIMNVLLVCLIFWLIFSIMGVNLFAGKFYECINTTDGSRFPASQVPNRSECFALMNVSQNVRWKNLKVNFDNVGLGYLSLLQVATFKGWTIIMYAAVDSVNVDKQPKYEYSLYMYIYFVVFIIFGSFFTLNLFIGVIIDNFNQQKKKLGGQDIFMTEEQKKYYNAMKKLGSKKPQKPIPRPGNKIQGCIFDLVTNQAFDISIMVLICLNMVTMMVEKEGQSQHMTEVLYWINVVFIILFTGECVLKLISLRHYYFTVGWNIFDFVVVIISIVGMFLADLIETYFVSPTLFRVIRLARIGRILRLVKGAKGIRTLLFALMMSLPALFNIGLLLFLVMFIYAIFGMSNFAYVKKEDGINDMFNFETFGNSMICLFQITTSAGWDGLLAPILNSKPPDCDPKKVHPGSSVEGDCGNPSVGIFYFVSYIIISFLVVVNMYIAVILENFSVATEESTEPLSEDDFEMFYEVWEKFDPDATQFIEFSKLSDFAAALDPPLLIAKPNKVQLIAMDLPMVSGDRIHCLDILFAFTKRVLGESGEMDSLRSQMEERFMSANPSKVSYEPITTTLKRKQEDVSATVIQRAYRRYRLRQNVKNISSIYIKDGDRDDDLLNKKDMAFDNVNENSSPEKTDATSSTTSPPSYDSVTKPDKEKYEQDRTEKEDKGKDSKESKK

IC50, < 1000 nM:
Cc1cc(C(=O)NC(C)c2cc(C)c(OCC(F)F)c(Cl)c2)cc(NC(=O)C(C)C)n1 (single isomer, unassigned) [Example 1212, N-(1-(3-chloro-4-(2,2-difluoroethoxy)-5-methylphenyl)ethyl)-2-isobutyramido-6-methylisonicotinamide]
CCc1cc(CNC(=O)c2cc(C)nc(NC(C)=O)c2)cnc1OCC(F)F [Example 932, 2-acetamido-N-((6-(2,2-difluoroethoxy)-5-ethylpyridin-3-yl)methyl)-6-methylisonicotinamide]
COc1nc(OCC(F)F)ccc1C(C)NC(=O)c1ccnc(NC(=O)C(C)C)c1 (single isomer, unassigned) [Example 1163, N-(1-(6-(2,2-difluoroethoxy)-2-methoxypyridin-3-yl)ethyl)-2-isobutyramidoisonicotinamide]
Cc1cc(C(=O)NC(C)c2cnc(OCC(F)(F)C(F)F)c(C)c2)nc(NC(=O)C2CC2)n1 (single isomer, unassigned) [Example 907, 2-(cyclopropanecarboxamido)-6-methyl-N-(1-(5-methyl-6-(2,2,3,3-tetrafluoropropoxy)pyridin-3-yl)ethyl)pyrimidine-4-carboxamide]
Cc1cc(C(=O)NCc2ccc(OCCC(F)(F)F)nc2)cc(NC(=O)C(C)C)n1 [Example 490, 2-isobutyramido-6-methyl-N-((6-(3,3,3-trifluoropropoxy)pyridin-3-yl)methyl)isonicotinamide]
CCOc1nc(OCC(F)(F)F)ccc1CNC(=O)c1cc(C)nc(NC(C)=O)c1 [Example 336, 2-acetamido-N-((2-ethoxy-6-(2,2,2-trifluoroethoxy)pyridin-3-yl)methyl)-6-methylisonicotinamide]
CCCC(=O)Nc1cc(C(=O)NC(C)c2ccc(OCC(C)(F)F)nc2)ccn1 (single isomer, unassigned) [Example 787, 2-butyramido-N-(1-(6-(2,2-difluoropropoxy)pyridin-3-yl)ethyl)isonicotinamide]
CCC(=O)Nc1cc(C(=O)NCc2ccc(OCC(F)(F)F)nc2N2CCCCC2)ccn1 [Example 303, N-((2-(piperidin-1-yl)-6-(2,2,2-trifluoroethoxy)pyridin-3-yl)methyl)-2-propionamidoisonicotinamide]
COc1cc(OC(F)(F)F)ccc1CNC(=O)c1ccnc(NC(=O)C(C)C)c1 [Example 869, 2-isobutyramido-N-(2-methoxy-4-(trifluoromethoxy)benzyl)isonicotinamide]
CC(C)C(=O)Nc1cc(C(=O)NC(C)c2cccc(SC(F)(F)F)c2)ccn1 (single isomer, unassigned) [Example 1030, 2-isobutyramido-N-(1-(3-((trifluoromethyl)thio)phenyl)ethyl)isonicotinamide]
CCC(=O)Nc1cc(C(=O)NCc2cc(F)c(OCC(F)(F)F)nc2OC)cc(C)n1 [Example 328, N-((5-fluoro-2-methoxy-6-(2,2,2-trifluoroethoxy)pyridin-3-yl)methyl)-2-methyl-6-propionamidoisonicotinamide]
Cc1cc(C(=O)NCc2cnc(OCC(F)(F)F)c(Cl)c2)nc(NC(=O)C(C)C)n1 [Example 385, N-((5-chloro-6-(2,2,2-trifluoroethoxy)pyridin-3-yl)methyl)-2-isobutyramido-6-methylpyrimidine-4-carboxamide]
CCC(=O)Nc1cc(C(=O)NC(C)c2cnc(OCC(F)(F)F)c(OC)c2)cc(C)n1 (single isomer, unassigned) [Example 144, N-(1-(5-methoxy-6-(2,2,2-trifluoroethoxy)pyridin-3-yl)ethyl)-2-methyl-6-propionamidoisonicotinamide]
COc1nc(OCC(F)(F)F)ccc1CN(C)C(=O)c1cc(C)nc(NC(C)=O)c1 [Example 290, 2-acetamido-N-((2-methoxy-6-(2,2,2-trifluoroethoxy)pyridin-3-yl)methyl)-N,6-dimethylisonicotinamide]
Cc1cc(C(=O)NCc2ccc(OCC(F)(F)F)nc2C)cc(NC(=O)C(C)C)n1 [Example 493, 2-isobutyramido-6-methyl-N-((2-methyl-6-(2,2,2-trifluoroethoxy)pyridin-3-yl)methyl)isonicotinamide]
CC(=O)Nc1cc(C(=O)N[C@H](C)c2cccc(C(F)(F)F)c2)cc(C)n1 (single isomer, unassigned) [Example 529]
CC(=O)Nc1cc(C(=O)NC(C)c2ccc(OCC(F)(F)C(F)(F)F)nc2)ccn1 (single isomer, unassigned) [Example 924, 2-acetamido-N-(1-(6-(2,2,3,3,3-pentafluoropropoxy)pyridin-3-yl)ethyl)isonicotinamide]
CCC(=O)Nc1cc(C(=O)NCc2ccc(OCC(F)(F)F)nc2N2CCCCC2)cc(C)n1 [Example 306, 2-methyl-N-((2-(piperidin-1-yl)-6-(2,2,2-trifluoroethoxy)pyridin-3-yl)methyl)-6-propionamidoisonicotinamide]
CCC(=O)Nc1nccc(C(=O)NC(C)c2cnc(OCC(F)(F)F)c(Cl)c2)n1 (single isomer, unassigned) [Example 210, N-(1-(5-chloro-6-(2,2,2-trifluoroethoxy)pyridin-3-yl)ethyl)-2-propionamidopyrimidine-4-carboxamide]
CC(C)C(=O)Nc1cc(C(=O)NC(C)c2ccc(OCC(F)(F)F)cc2Cl)ccn1 (single isomer, unassigned) [Example 799, N-(1-(2-chloro-4-(2,2,2-trifluoroethoxy)phenyl)ethyl)-2-isobutyramidoisonicotinamide]
COc1nc(OCC(F)F)ccc1CNC(=O)c1cc(C)nc(NC(=O)C(C)C)c1 [Example 1157, N-((6-(2,2-difluoroethoxy)-2-methoxypyridin-3-yl)methyl)-2-isobutyramido-6-methylisonicotinamide]
COc1cc(C(C)NC(=O)c2cc(C)nc(NC(=O)C(C)C)c2)cnc1OCC(F)(F)F (single isomer, unassigned) [Example 487, 2-isobutyramido-N-(1-(5-methoxy-6-(2,2,2-trifluoroethoxy)pyridin-3-yl)ethyl)-6-methylisonicotinamide]
CC(NC(=O)c1ccnc(NC(=O)C2CC2)n1)c1cnc(OCC(F)(F)F)c(Cl)c1 (single isomer, unassigned) [Example 211, N-(1-(5-chloro-6-(2,2,2-trifluoroethoxy)pyridin-3-yl)ethyl)-2-(cyclopropanecarboxamido)pyrimidine-4-carboxamide]
CCC(=O)Nc1cc(C(=O)N(C)Cc2ccc(OCC(F)(F)F)nc2OC)cc(C)n1 [Example 291, N-((2-methoxy-6-(2,2,2-trifluoroethoxy)pyridin-3-yl)methyl)-N,2-dimethyl-6-propionamidoisonicotinamide]
CCC(=O)Nc1cc(C(=O)NCc2ccc(O[C@H](C)C(F)(F)F)nc2)cc(C)n1 (single isomer, unassigned) [Example 318]
Cc1cc(C(C)NC(=O)c2ccnc(NC(=O)C3CC3)n2)ccc1OCC(F)F (single isomer, unassigned) [Example 863, 2-(cyclopropanecarboxamido)-N-(1-(4-(2,2-difluoroethoxy)-3-methylphenyl)ethyl)pyrimidine-4-carboxamide]
CCOc1nc(OCC(F)(F)F)ccc1CNC(=O)c1cc(C)nc(NC(=O)CC)c1 [Example 334, N-((2-ethoxy-6-(2,2,2-trifluoroethoxy)pyridin-3-yl)methyl)-2-methyl-6-propionamidoisonicotinamide]
CC(NC(=O)c1ccnc(NC(=O)C2CC2)c1)c1ccc(OCCC(F)(F)F)nc1 (single isomer, unassigned) [Example 116, 2-(cyclopropanecarboxamido)-N-(1-(6-(3,3,3-trifluoropropoxy)pyridin-3-yl)ethyl)isonicotinamide]
CC(C)C(=O)Nc1cc(C(=O)NC(C)c2cnc(OCC(F)(F)F)c(Cl)c2)ccn1 (single isomer, unassigned) [Example 522, N-(1-(5-chloro-6-(2,2,2-trifluoroethoxy)pyridin-3-yl)ethyl)-2-isobutyramidoisonicotinamide]
Cc1cc(C(=O)NC(C)c2cc(C(F)(F)F)ccc2F)cc(NC(=O)C(C)C)n1 (single isomer, unassigned) [Example 980, N-(1-(2-fluoro-5-(trifluoromethyl)phenyl)ethyl)-2-isobutyramido-6-methylisonicotinamide]
COc1cc(CNC(=O)c2ccnc(NC(C)=O)c2)ccc1OCC(F)(F)F [Example 1078, 2-acetamido-N-(3-methoxy-4-(2,2,2-trifluoroethoxy)benzyl)isonicotinamide]
Cc1cc(C(C)NC(=O)c2ccnc(NC(=O)C(C)C)c2)ccc1OCC(F)F (single isomer, unassigned) [Example 862, N-(1-(4-(2,2-difluoroethoxy)-3-methylphenyl)ethyl)-2-isobutyramidoisonicotinamide]
CC(=O)Nc1cc(C(=O)NC(C)c2ccc(OCC(F)(F)F)cc2Cl)ccn1 (single isomer, unassigned) [Example 796, 2-acetamido-N-(1-(2-chloro-4-(2,2,2-trifluoroethoxy)phenyl)ethyl)isonicotinamide]
